From patent publication US11254690B2, “PTEFb inhibiting macrocyclic compounds” (BAYER AKTIENGESELLSCHAFT, priority 2017, dated 2022)
Like-named read-outs stand apart in the source and are kept apart here.

How the values were obtained:
[1] = test system: A2780 cells; test: Proliferation assay, A2780; format: cell-based, human; conditions: 72-hour exposure, Cell Titre-Glo, read-out: Inhibition of A2780 cell proliferation IC50
Procedure: Cultivated tumour cells (HeLa, human cervical tumour cells, ATCC CCL-2; NCI-H460, human non-small cell lung carcinoma cells, ATCC HTB-177; DU 145, hormone-independent human prostate carcinoma cells, ATCC HTB-81; HeLa-MaTu-ADR, multidrug-resistant human cervical carcinoma cells, EPO-GmbH Berlin; Caco-2, human colorectal carcinoma cells, ATCC HTB-37; B16F10, mouse melanoma cells, ATCC CRL-6475) were plated at a density of 5,000 cells/well (DU145, HeLa-MaTu-ADR), 3,000 cells/well (NCI-H460, HeLa), 1,500 cells/well (Caco-2), or 1,000 cells/well (B16F10) in a 96-well multititer plate in 200 μL of their respective growth medium supplemented 10% fetal calf serum. After 24 hours, the cells of one plate (zero-point plate) were stained with crystal violet (see below), while the medium of the other plates was supplemented with the test substances in various concentrations (0 μM, as well as in the range of 0.0001-10 μM; the final concentration of the solvent dimethyl sulfoxide was adjusted to 0.1%) using a Hewlett-Packard HP D300 Digital Dispenser. The cells were incubated for 4 days in the presence of test substances. Cell proliferation was determined by staining the cells with crystal violet: the cells were fixed by adding 20 μl/measuring point of an 11% glutaric aldehyde solution for 15 minutes at room temperature. After three washing cycles of the fixed cells with water, the plates were dried at room temperature. The cells were stained by adding 100 μl/measuring point of a 0.1% crystal violet solution (pH 3.0). After three washing cycles of the stained cells with water, the plates were dried at room temperature. The dye was dissolved by adding 100 μl/measuring point of a 10% acetic acid solution. The extinction was determined by photometry at a wavelength of 595 nm. The change of cell number, in percent, was calculated by normalization of the measured values to the extinction values of the zero-point plate (=0%) and the extinction of the untreated ([…]) cells (=100%). The IC50 values (inhibitory concentration at 50% of maximal effect) were determined by means of a 4 parameter fit. A2780 human ovarian carcinoma cells (ECACC #93112519) and non-adherent MOLM-13 human acute myeloid leukemia cells (DSMZ ACC 554) were seeded at a density of 3,000 cell/well (A2780) or 5,000 cells/well (MOLM-13) in a 96-well multititer plate in 150 μL of growth medium supplemented 10% fetal calf serum. After 24 hours, cell viability of one plate (zero-point plate) was determined with the Cell Titre-Glo Luminescent Cell Viability Assay (Promega), while the medium of the other plates was supplemented with the test substances in various concentrations (0 μM, as well as in the range of 0.0001-10 μM; the final concentration of the solvent dimethyl sulfoxide was adjusted to 0.1%) using a Hewlett-Packard HP D300 Digital Dispenser. Cell viability was assessed after 72-hour exposure with the Cell Titre-Glo Luminescent Cell Viability Assay (Promega). IC50 values (inhibitory concentration at 50% of maximal effect) were determined by means of a 4 parameter fit on measurement data which were normalized to vehicle (DMSO) treated cells (=100%) and measurement readings taken immediately before compound exposure (=0%).

[2] = target: T1, CDK2/CycE (Homo sapiens, UniProt P24941); test: CDK2/CycE high ATP kinase assay (TR-FRET, 2 mM ATP); format: biochemical; conditions: Method 2b
T1 construct: GST; purchased ProQinase GmbH (Freiburg, Germany); host or cells: insect cells (Sf9)
Method in brief: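 Recombinant GST-tagged human CDK2 and CycE from Sf9 cells (about 10 ng/ml), biotinylated peptide substrate, 2 mM ATP, Tris pH 8.0 buffer; compound pre-incubated 15 min at 22° C. Phospho-substrate detected by TR-FRET with anti-RB(pSer807/pSer811) antibody, 665/622 nm ratio; normalised to no-inhibitor and no-enzyme controls.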

Compound | IC50 ([1]; Homo sapiens, A2780, 72 h) [nM] | IC50 [2] [nM] | IC50 [1] [nM]
CS(=N)(=O)Cc1cc2nc(c1)OCCCCOc1cc(ccc1F)-c1cc(ncc1F)N2 (racemic) [Example 2, (rac)-3,20-difluoro-10-[(S-methylsulfonimidoyl)methyl]-13,18-dioxa-5,7,24-triazatetracyclo[17.3.1.1^2,6.1^8,12]pentacosa-1(23),2(25),3,5,8(24),9,11,19,21-nonaene] | 9 | 737 | 
CC(C)(C)OC(=O)N=S(C)(=O)Cc1cc2cc(c1)OCCCCOc1cc(ccc1F)-c1nc(ncc1F)N2 (racemic) [Example 3, (rac)-tert-butyl [{[3,20-difluoro-13,18-dioxa-5,7,25-triazatetracyclo[17.3.1.1^2,6.1^8,12]pentacosa-1(23),2(25),3,5,8(24),9,11,19,21-nonaen-10-yl]methyl}(methyl)oxido-λ^6-sulfanylidene]carbamate] | 56 | > 20000 | 
CS(=N)(=O)Cc1cc2cc(c1)OCCCCOc1cc(ccc1F)-c1nc(ncc1F)N2 (racemic) [Example 4, (rac)-3,20-difluoro-10-[(S-methylsulfonimidoyl)methyl]-13,18-dioxa-5,7,25-triazatetracyclo[17.3.1.1^2,6.1^8,12]pentacosa-1(23),2(25),3,5,8(24),9,11,19,21-nonaene] | 41 | 1540 | 
CC(C)(C)OC(=O)N=S(C)(=O)Cc1cc2cc(c1)OCCCCCOc1cc(ccc1F)-c1nc(ncc1F)N2 (racemic) [Example 5, (rac)-tert-butyl [{[3,21-difluoro-13,19-dioxa-5,7,26-triazatetracyclo[18.3.1.1^2,6.1^8,12]hexacosa-1(24),2(26),3,5,8(25),9,11,20,22-nonaen-10-yl]methyl}(methyl)oxido-λ^6-sulfanylidene]carbamate] | > 100 | > 20000 | 
CS(=N)(=O)Cc1cc2cc(c1)OCCCCCOc1cc(ccc1F)-c1nc(ncc1F)N2 (racemic) [Example 6, (rac)-3,21-difluoro-10-[(S-methylsulfonimidoyl)methyl]-13,19-dioxa-5,7,26-triazatetracyclo[18.3.1.1^2,6.1^8,12]hexacosa-1(24),2(26),3,5,8(25),9,11,20,22-nonaene] | 39 | 16200 | 
CS(=N)(=O)Cc1cc2cc(c1)OCCCCOc1c(F)ccc(c1F)-c1nc(ncc1F)N2 (racemic) [Example 8, (rac)-3,20,23-trifluoro-10-[(S-methylsulfonimidoyl)methyl]-13,18-dioxa-5,7,25-triazatetracyclo[17.3.1.1^2,6.1^8,12]pentacosa-1(23),2(25),3,5,8(24),9,11,19,21-nonaene] | 68 | 6520 | 
CS(=N)(=O)Cc1cc2cc(c1)OCCCOc1cc(ccc1F)-c1nc(ncc1F)N2 (racemic) [Example 10, (rac)-3,19-difluoro-10-[(S-methylsulfonimidoyl)methyl]-13,17-dioxa-5,7,24-triazatetracyclo[16.3.1.1^2,6.1^8,12]tetracosa-1(22),2(24),3,5,8(23),9,11,18,20-nonaene] | 48 | 4750 | 
CC1CCCOc2cc(ccc2F)-c2cc(ncc2F)Nc2cc(CS(C)(=O)=O)cc(n2)O1 (racemic) [Example 28, 3,20-difluoro-14-methyl-10-[(methylsulfonyl)methyl]-13,18-dioxa-5,7,24-triazatetracyclo[17.3.1.1^2,6.1^8,12]pentacosa-1(23),2(25),3,5,8(24),9,11,19,21-nonaene] | 16 | 360 | 
CC1CCCOc2cc(ccc2F)-c2cc(ncc2F)Nc2cc(CS(C)(=N)=O)cc(n2)O1 (single isomer, unassigned) [Example 16, 3,20-difluoro-14-methyl-10-[(S-methylsulfonimidoyl)methyl]-13,18-dioxa-5,7,24-triazatetracyclo[17.3.1.1^2,6.1^8,12]pentacosa-1(23),2(25),3,5,8(24),9,11,19,21-nonaene] |  | 144 | 6
CC1CCCOc2cc(ccc2F)-c2cc(ncc2F)Nc2cc(CS(C)(=N)=O)cc(n2)O1 (single isomer, unassigned) [Example 17, 3,20-difluoro-14-methyl-10-[(S-methylsulfonimidoyl)methyl]-13,18-dioxa-5,7,24-triazatetracyclo[17.3.1.1^2,6.1^8,12]pentacosa-1(23),2(25),3,5,8(24),9,11,19,21-nonaene] |  | 132 | 6
CC1CCCCOc2cc(ccc2F)-c2cc(ncc2F)Nc2cc(CS(C)(=N)=O)cc(n2)O1 (single isomer, unassigned) [Example 21, 3,21-difluoro-14-methyl-10-[(S-methylsulfonimidoyl)methyl]-13,19-dioxa-5,7,25-triazatetracyclo[18.3.1.1^2,6.1^8,12]hexacosa-1(24),2(26),3,5,8(25),9,11,20,22-nonaene] |  | 2450 | 27
CC1CCCCOc2cc(ccc2F)-c2cc(ncc2F)Nc2cc(CS(C)(=N)=O)cc(n2)O1 (single isomer, unassigned) [Example 22, 3,21-difluoro-14-methyl-10-[(S-methylsulfonimidoyl)methyl]-13,19-dioxa-5,7,25-triazatetracyclo[18.3.1.1^2,6.1^8,12]hexacosa-1(24),2(26),3,5,8(25),9,11,20,22-nonaene] |  | 501 | 0.7
